Measured values: ChEMBL document CHEMBL3763113, “Discovery of spirocyclic proline tryptophan hydroxylase-1 inhibitors” (Bioorg Med Chem Lett, 2016)
pIC50: −log10 of the molar value.

Legend:
[1] = target: T1, Tryptophan 5-hydroxylase 1 (Homo sapiens, UniProt P17752)
T1 sequence (P17752 whole entry): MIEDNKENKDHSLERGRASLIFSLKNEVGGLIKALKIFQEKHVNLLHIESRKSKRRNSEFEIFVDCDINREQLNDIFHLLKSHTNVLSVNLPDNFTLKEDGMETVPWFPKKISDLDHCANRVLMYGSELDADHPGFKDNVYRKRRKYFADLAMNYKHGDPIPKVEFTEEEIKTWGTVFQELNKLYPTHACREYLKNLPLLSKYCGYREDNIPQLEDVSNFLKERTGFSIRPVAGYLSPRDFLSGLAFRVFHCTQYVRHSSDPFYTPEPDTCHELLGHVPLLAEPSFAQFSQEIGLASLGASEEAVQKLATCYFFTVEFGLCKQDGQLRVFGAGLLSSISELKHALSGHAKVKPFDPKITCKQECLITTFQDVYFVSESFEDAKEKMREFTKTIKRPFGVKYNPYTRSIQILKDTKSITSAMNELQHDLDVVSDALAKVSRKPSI
Description: Inhibition of TPH1 (unknown origin)

Rattus norvegicus [2] = assay: Decrease in 5-HT levels in rat platelet rich plasma at 30 mg/kg, po bid measured after 16 hrs relative to control; type: functional; set-up: scale not given: the % may be the effect or the level left
Rattus norvegicus [3] = assay: Decrease in 5-HT levels in rat intestinal mucosa at 10 mg/kg, po qd measured after 16 hrs relative to control; type: functional; set-up: scale not given: the % may be the effect or the level left
[4] = Clearance in rat at 25 mg/kg, po and 1 mg/kg, iv; type: ADME, organism-based; settings: in vivo
[5] = Half life in rat at 1 mg/kg, iv; type: ADME, organism-based; settings: in vivo
[6] = Volume of distribution at steady state in rat at 1 mg/kg, iv; type: ADME, organism-based; settings: in vivo, read-out: Vdss
[7] = Cmax in rat at 25 mg/kg, po; type: ADME, organism-based; set-up: dose 25 mg/kg, route oral; settings: in vivo
[8] = AUC(0 to last) in rat at 25 mg/kg, po; type: ADME, organism-based; set-up: dose 25 mg/kg, time 0 - last, route oral; settings: in vivo
Rattus norvegicus [9] = assay: Half life in rat assessed as (S)-8-(2-amino-6-((R)-1-(4-chloro-2-(3-methyl-1H-pyrazol-1-yl)phenyl)-2,2,2-trifluoroethoxy)pyrimidin-4-yl)-2,8-diazaspiro[4.5]decane-3-carboxylic acid at 1 mg/kg, iv; type: ADME, organism-based; settings: in vivo
Rattus norvegicus [10] = assay: Cmax in rat assessed as (S)-8-(2-amino-6-((R)-1-(4-chloro-2-(3-methyl-1H-pyrazol-1-yl)phenyl)-2,2,2-trifluoroethoxy)pyrimidin-4-yl)-2,8-diazaspiro[4.5]decane-3-carboxylic acid at 25 mg/kg, po; type: ADME, organism-based; set-up: dose 25 mg/kg, route oral; settings: in vivo
Rattus norvegicus [11] = assay: AUC(0 to last) in rat assessed as (S)-8-(2-amino-6-((R)-1-(4-chloro-2-(3-methyl-1H-pyrazol-1-yl)phenyl)-2,2,2-trifluoroethoxy)pyrimidin-4-yl)-2,8-diazaspiro[4.5]decane-3-carboxylic acid at 25 mg/kg, po; type: ADME, organism-based; set-up: dose 25 mg/kg, route oral, time 0 - last; settings: in vivo
Mus musculus [12] = assay: Decrease in 5-HT levels in mouse at 50 mg/kg, po administered as single dose for 16 hrs; type: functional
Mus musculus [13] = assay: Decrease in 5-HT levels in mouse at 10 mg/kg, po administered as single dose for 16 hrs; type: functional
Rattus norvegicus [14] = assay: Decrease in 5-HT levels in rat platelet rich plasma at 10 mg/kg, po qd measured after 16 hrs relative to control; type: functional; set-up: scale not given: the % may be the effect or the level left
Rattus norvegicus [15] = assay: Decrease in 5-HT levels in rat platelet rich plasma at 30 mg/kg, po qd measured after 16 hrs relative to control; type: functional; set-up: scale not given: the % may be the effect or the level left
Rattus norvegicus [16] = assay: Decrease in 5-HT levels in rat intestinal mucosa at 30 mg/kg, po qd measured after 16 hrs relative to control; type: functional; set-up: scale not given: the % may be the effect or the level left
Rattus norvegicus [17] = assay: Decrease in 5-HT levels in rat intestinal mucosa at 30 mg/kg, po bid measured after 16 hrs relative to control; type: functional; set-up: scale not given: the % may be the effect or the level left

Work on `Cc1ccn(-c2cc(Cl)ccc2[C@@H](Oc2cncc(N3CCC4(CC3)CNC(C(=O)O)C4)n2)C(F)(F)F)n1` (stereo partly specified) yielded a pIC50 [1] of 4.70.
`CCOC(=O)[C@@H]1CC2(CCN(c3cc(O[C@H](c4ccc(Cl)cc4-n4ccc(C)n4)C(F)(F)F)nc(N)n3)CC2)CN1` showed an Activity (Rattus norvegicus [2]) of 72%, an Activity (Rattus norvegicus [3]) of 76% and a clearance [4] of 178 mL/min/kg. For the same compound, the half-life [5] was 24 min, the Vd [6] was 3.1 L/kg and the Cmax [7] was 249 ng/mL. It also gave an AUC(0-t) [8] of 140 ng·h/mL, a t1/2 (Rattus norvegicus [9]) of 271 min and a Cmax (Rattus norvegicus [10]) of 2253 ng/mL. The AUClast (Rattus norvegicus [11]) was 2924 ng·h/mL, the inhibition in vivo at 50 mg/kg (Mus musculus [12]) was 56% and the inhibition in vivo at 10 mg/kg (Mus musculus [13]) was 32%. It also gave an Activity (Rattus norvegicus [14]) of 76%, an Activity (Rattus norvegicus [15]) of 71% and an Activity (Rattus norvegicus [16]) of 62%. It also gave an Activity (Rattus norvegicus [17]) of 38%.
`Cc1ccn(-c2cc(Cl)ccc2[C@@H](Oc2cnc(N3CCC4(CC3)CNC(C(=O)O)C4)cn2)C(F)(F)F)n1` (stereo partly specified) showed a pIC50 [1] of 5.47.
In the case of `Cc1ccn(-c2cc(Cl)ccc2[C@@H](Oc2nc(N)nc(N3CCC4(CC3)CNC(C(=O)O)C4)n2)C(F)(F)F)n1` (stereo partly specified), the pIC50 [1] was 5.64.
For `Cc1ccn(-c2cc(Cl)ccc2[C@@H](Oc2ccnc(N3CCC4(CC3)CNC(C(=O)O)C4)c2)C(F)(F)F)n1` (stereo partly specified), the pIC50 [1] was 6.68.
Compound `Cc1ccn(-c2cc(Cl)ccc2[C@@H](Oc2cnnc(N3CCC4(CC3)CNC(C(=O)O)C4)c2)C(F)(F)F)n1` (stereo partly specified) has a pIC50 [1] of 5.23.
